Assay results published in the supplement of paper PMC11061612.

Legend:
Test in all cases: combination Emax (second highest fraction inhibited in the dose matrix, 72 h); higher = more inhibition; extreme values may be limits of the assay
SF268 (Low Grade Glioma) = tested on: SF268 (Low Grade Glioma)
Summary of the method: (§1)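 After 24 hours at 37°C and 5% CO2 in 1536-well plates, cells in DMEM/F12 or RPMI plus 10% FBS received two-drug dose matrices for 72 hours. Viability came from CellTiter-Glo 2.0 luminescence and was scaled as inhibition, anchored at 0 by vehicle wells and at 1 by blank wells. Combination Emax is taken as the second-highest inhibition in the matrix, and Bliss excess as the observed combination effect less EA + EB − EA·EB, with EA and EB the single-agent effects.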

[1] = tested on: PSN1 (Pancreatic Carcinoma)
Summary of the method: as §1

[2] = tested on: FADU (Head and Neck Carcinoma)
Summary of the method: as §1

[3] = tested on: 23132-87 (Gastric Carcinoma)
Summary of the method: as §1

[4] = tested on: RERF-GC-1B (Gastric Carcinoma)
Summary of the method: as §1

[5] = tested on: PC-3_[JPC-3] (Lung Adenocarcinoma)
Summary of the method: as §1

[6] = tested on: MFE-280 (Endometrial Carcinoma)
Summary of the method: as §1

[7] = tested on: VAL (B-Cell Non-Hodgkin's Lymphoma)
Summary of the method: as §1

[8] = tested on: RCM-1 (Colorectal Carcinoma)
Summary of the method: as §1

[9] = tested on: LK-2 (Squamous Cell Lung Carcinoma)
Summary of the method: as §1

[10] = tested on: RERF-LC-Sq1 (Squamous Cell Lung Carcinoma)
Summary of the method: as §1

[11] = tested on: CAL-120 (Breast Carcinoma)
Summary of the method: as §1

[12] = tested on: KE-37 (T-Lymphoblastic Leukemia)
Summary of the method: as §1

[13] = tested on: HSC-39 (Gastric Carcinoma)
Summary of the method: as §1

IST-MES1 (Mesothelioma) = tested on: IST-MES1 (Mesothelioma)
Summary of the method: as §1

[14] = tested on: GP5d (Colorectal Carcinoma)
Summary of the method: as §1

[15] = tested on: REH (B-Lymphoblastic Leukemia)
Summary of the method: as §1

[16] = tested on: MKN45 (Gastric Carcinoma)
Summary of the method: as §1

[17] = tested on: HEC-1 (Endometrial Carcinoma)
Summary of the method: as §1

[18] = tested on: NCI-H2342 (Lung Adenocarcinoma)
Summary of the method: as §1

| Structure (SMILES) | combination Emax (SF268 (Low Grade Glioma)) | combination Emax [1] | combination Emax [2] | combination Emax [3] | combination Emax [4] | combination Emax [5] | combination Emax [6] | combination Emax [7] | combination Emax [8] | combination Emax [9] | combination Emax [10] | combination Emax [11] | combination Emax [12] | combination Emax [13] | combination Emax (IST-MES1 (Mesothelioma)) | combination Emax [14] | combination Emax [15] | combination Emax [16] | combination Emax [17] | combination Emax [18] |
| --- | --- | --- | --- | --- | --- | --- | --- | --- | --- | --- | --- | --- | --- | --- | --- | --- | --- | --- | --- | --- |
| C=CCn1c(=O)c2cnc(Nc3ccc(N4CCN(C)CC4)cc3)nc2n1-c1cccc(C(C)(C)O)n1 [AZD1775] + C[C@@H]1COCCN1C2=NC(=NC(=C2)C3(CC3)[S@](=N)(=O)C)C4=C5C=CNC5=NC=C4 [AZD6738] (first compound max 1 µM, partner max 10 µM) | 0.526 | 0.764 | 0.875 | 0.918 | 0.851 | 0.537 | 0.627 | 0.881 | 0.852 | 0.882 | 0.859 | 0.583 | 1 | 1 | 0.597 | 0.927 | 0.955 | 0.787 | 0.638 | 0.426 |
| Cc1c2c(nn1C)CSCc1cc(n(C)n1)CSc1cc(c3ccccc3c1)OCCCc1c(C(=O)O)n(C)c3c-2c(Cl)ccc13 [AZD5991] + C1CN(CCC1(C(=O)N[C@@H](CCO)C2=CC=C(C=C2)Cl)N)C3=NC=NC4=C3C=CN4 [Capivasertib] (first compound max 1 µM, 7x7, partner max 3 µM) | 0.216 | 0.241 | 1 | 0.934 | 0.989 | 0.203 | 0.461 | 0.811 | 0.307 | 0.121 | 0.757 | 0.256 | 1 | 1 | 0.138 | 0.733 | 0.849 | 0.467 | 0.0757 | 0.298 |
| CC1(C)CCC(CN2CCN(c3ccc(C(=O)NS(=O)(=O)c4ccc(NCC5CCOCC5)c([N+](=O)[O-])c4)c(Oc4cnc5[nH]ccc5c4)c3)CC2)=C(c2ccc(Cl)cc2)C1 [Venetoclax] + C[C@@H]1COCCN1C2=NC(=NC(=C2)C3(CC3)[S@](=N)(=O)C)C4=C5C=CNC5=NC=C4 [AZD6738] (first compound max 1 µM, 7x7, partner max 10 µM) | 0.64 | 0.396 | 0.614 | 0.433 | 0.428 | 0.442 | 0.423 | 1 | 0.78 | 0.494 | 0.675 | 0.384 | 1 | 1 | 0.396 | 0.739 | 0.996 | 0.678 | 0.41 | 0.265 |
| Cc1c2c(nn1C)CSCc1cc(n(C)n1)CSc1cc(c3ccccc3c1)OCCCc1c(C(=O)O)n(C)c3c-2c(Cl)ccc13 [AZD5991] + C[C@@H](Nc1cc(F)cc(F)c1)c1cc(C(=O)N(C)C)cc2c(=O)cc(N3CCOCC3)oc12 [AZD8186] (first compound max 1 µM, 7x7, partner max 3 µM) | 0.3 | 0.375 | 0.968 | 0.867 | 0.98 | 0.348 | 0.465 | 0.744 | 0.285 | 0.196 | 0.228 | 0.218 | 0.919 | 1 | 0.241 | 0.817 | 0.776 | 0.39 | 0.14 | 0.294 |
| COc1cccc2c1C(=O)c1c(O)c3c(c(O)c1C2=O)C[C@@](O)(C(=O)CO)C[C@@H]3O[C@H]1C[C@H](N)[C@H](O)[C@H](C)O1 [Doxorubicin] + Cc1cc2ncnn2cc1Nc1ncc2c(n1)n(C1CCOCC1)c(=O)n2C [AZD7648] (first compound max 1 µM, 7x7, partner max 10 µM) | 0.538 | 0.788 | 0.928 | 0.82 | 0.779 | 0.57 | 0.835 | 1 | 0.605 | 0.632 | 0.627 | 0.47 | 1 | 0.867 | 0.767 | 0.693 | 1 | 0.821 | 0.367 | 0.349 |
| CC1(C)CCC(CN2CCN(c3ccc(C(=O)NS(=O)(=O)c4ccc(NCC5CCOCC5)c([N+](=O)[O-])c4)c(Oc4cnc5[nH]ccc5c4)c3)CC2)=C(c2ccc(Cl)cc2)C1 [Venetoclax] + CCN(CCO)CCCOc1ccc2c(Nc3cc(CC(=O)Nc4cccc(F)c4)[nH]n3)ncnc2c1 [AZD2811] (first compound max 1 µM, 7x7, partner max 1 µM) | 0.328 | 0.222 | 0.219 | 0.152 | 0.298 | 0.182 | 0.371 | 1 | 0.372 | 0.851 | 0.361 | 0.153 | 1 | 0.981 | 0.198 | 0.513 | 1 | 0.588 | 0.16 | 0.217 |
